Data published in patent publication US7432045B2 (priority 2003, dated 2008).
pIC50: −log10 of the molar value. Like-named read-outs stand apart in the source and are kept apart here. Peptide text beside a SMILES is read from it. * marks the point of attachment. code b = biotin-ε-aminohexanoyl, O=C(CCCC[C@@H]1SC[C@@H]2NC(=O)N[C@@H]21)NCCCCCC(=O)*; Biotin = O=C1N[C@H]2[C@H](CS[C@H]2CCCCC(=O)*)N1; Ahx = NCCCCCC(=O)O

Experiments:
HSV-1 KOS mutant hrR3 [1] = details: read-out: post-entry effects IC50; peptide added after citrate treatment, 8 h
HSV-1 KOS mutant hrR3 [2] = test: LacZ+ virus (hrR3) entry assay with pre-adsorbed virus (entry block); format: cell-based
Experimental: LacZ^+ virus (hrR3) entry assay: Confluent Vero cell cultures in 96-well microtiter plates were switched to Hepes-buffered serum-free DMEM, cooled on ice to 4° C. for 30 min, and infected with hrR3 for 1 hour at 4° C. in 40 μL of medium. Unattached virus was removed by rinsing with ice-cold medium. Treatments with antiviral peptide SEQ ID NO:1, referred to as EB, or a control peptide which comprised the RRKK tetra-peptide (SEQ ID NO:16) attached to a scrambled version of the membrane transiting peptide RRKKLAALPLVLAAPLAVLA (SEQ ID NO:17) (referred to as EBX), or mock-treatments with peptide-free medium were carried out in serum-free DMEM as indicated. Virus entry was initiated by transferring cultures to 37° C. To inactivate any remaining extracellular virus, cultures were rinsed with PBS and exposed to low pH citrate buffer (40 mM citric acid, 10 mM KCl, 135 mM NaCl, pH 3.0, according to Highlander et al., J. Virol. 61:3356 (1987), for 1 min at 23° C. The citrate was rinsed off with PBS and cultures were maintained in serum-supplemented DMEM until they were fixed with 0.5% gluteraldehyde in 5×PBS for 30 min at 23° C., stained for β-galactosidase activity for 1 hour or overnight at 23° C. with X-gal (Fisher Biotech; BP1615-1) in 1×PBS containing […], 1.3 mM K4Fe(CN)6, and 1.3 mM K3Fe(CN)6, and scored for the presence of blue […] cells.
In these studies, the hrR3 virus was pre-adsorbed to cells for 1 hour at 4° C. before ice cold 25 μM EB or EBX were added in serum-free DMEM. After an additional 1 hour at 4° C., cultures were shifted to 37° C. to initiate virus entry. At 15 min intervals following the temperature shift, any virus remaining outside the cells was inactivated by washing the cultures with low pH citrate buffer. Cultures were then rinsed and returned to peptide-free serum-supplemented DMEM until they were fixed and stained for β-galactosidase 8 hours after the temperature shift.
(§1) Two assays were used to assess the ability of the TAT peptides to inhibit infection of Vero cells with the hrR3 virus. In both assays, the virus was preadsorbed to cells at 4° C. and entry was initiated in the presence of peptide by shifting the cultures to a permissive temperature (30-37° C.). One hour later, the peptide was rinsed off. The entry blocking activity was measured in half of the cultures, in which any extracellular virus remaining after the peptide treatment was inactivated with low pH citrate buffer. The rest of the cultures were exposed to PBS instead of citrate buffer and used to measure virus inactivation. Virus inactivation depended on persistent effects of the peptide lasting for a period of eight hours. At the end of that period, all cultures were fixed and infected cells were detected by staining with X-gal.
(§2) Virus (m.o.i.=0.025) was preadsorbed to Vero cells for 1 h at 4° C. before cultures were exposed to TAT-C (FIG. 15A), bTAT-9X (FIG. 15B), or n50,51TAT-C (FIGS. 15C, 15D) for 1 h at 33 (FIGS. 15A, 15B), 31 (FIG. 15C), or 37° C. (FIG. 15D). […] Inhibition of entry was measured in the citrate-treated cultures, in which any remaining external virus was inactivated immediately following exposure to peptide (●). Persistent virus inactivation lasting, at least in part, for the 8 h period following exposure to peptide, was measured in the PBS-treated cultures (◯). The IC50s measured in these experiments are included in Table 5.

HSV-1 KOS mutant hrR3 [3] = test: Inactivation of pre-adsorbed virus (virus inactivation); format: cell-based; details: 33° C.; read-out: Virus Inactivation IC50 (pre-adsorbed virus)
Experimental: as §1, §2

in vitro = details: African green monkey
[4] = test system: Vero, HeLa, CV-1PD, TM-1, DP-9, CEMx174, NIKS, W12E cells; test: MTS assay, eight cell lines; details: eight cell lines
hrR3 = test: Virucidal assay; format: cell-based, HSV-1
Experimental: […] The treated virus was diluted 200-fold with serum-supplemented DMEM and assayed for infectivity approximately 1 hour later in microtiter wells seeded with Vero cells (3.5×10^4 cells/well) 1 d earlier. Forty or 100 microliter volumes of diluted virus were adsorbed for 1 or 2 h at 37° C. and lacZ^+ cells were scored 8 hours later. In some experiments, aliquots of diluted virus were first dialyzed (Spectra/Por; MWCO 12-14,000) overnight at 4° C. against a 60-fold excess volume of Hepes-buffered serum-supplemented DMEM or forced by syringe through 0.22 μm membranes (Millex-GV; Millipore) before the remaining infectious virus was assayed.

[5] = 33° C., read-out: Entry Block IC50

Molecule: N=C(N)NCCC[C@H](NC(=O)CNC(=O)CCCCCNC(=O)CCCC[C@@H]1SC[C@@H]2NC(=O)N[C@@H]21)C(=O)N[C@@H](CCCCN)C(=O)N[C@@H](CCCCN)C(=O)N[C@@H](CCCNC(=N)N)C(=O)N[C@@H](CCCNC(=N)N)C(=O)N[C@@H](CCC(N)=O)C(=O)N[C@@H](CCCNC(=N)N)C(=O)N[C@@H](CCCNC(=N)N)C(=O)N[C@@H](CCCNC(=N)N)C(=O)N[C@@H](CS)C(N)=O [bTAT-C, b-GRKKRRQRRRC-amide]
- pIC50 (HSV-1 KOS mutant hrR3 [1]): 3.76
- pIC50 (HSV-1 KOS mutant hrR3 [2]; [5]): 5.24
- pIC50 (HSV-1 KOS mutant hrR3 [3]): 4.57

Molecule: CC(C)C[C@H](NC(=O)CCCCCNC(=O)CCCC[C@@H]1SC[C@@H]2NC(=O)N[C@@H]21)C(=O)N[C@@H](C)C(=O)N[C@H](C(=O)N[C@@H](CC(C)C)C(=O)N[C@@H](C)C(=O)N1CCC[C@H]1C(=O)NCC(=O)N[C@@H](CCCNC(=N)N)C(=O)N[C@@H](CCCCN)C(=O)N[C@@H](CCCCN)C(=O)N[C@@H](CCCNC(=N)N)C(=O)N[C@@H](CCCNC(=N)N)C(=O)N[C@@H](CCC(N)=O)C(=O)N[C@@H](CCCNC(=N)N)C(=O)N[C@@H](CCCNC(=N)N)C(=O)N[C@@H](CCCNC(=N)N)C(=O)N[C@@H](CS)C(N)=O)C(C)C [b6TAT-C, b-LAVLAPGRKKRRQRRRC-amide] ({Biotin-Ahx}-LAVLAPGRKKRRQRRRC-NH2)
- pIC50 (HSV-1 KOS mutant hrR3 [1]): 3.72
- pIC50 (HSV-1 KOS mutant hrR3 [2]; [5]): 5.28
- pIC50 (HSV-1 KOS mutant hrR3 [3]): 4.60

Molecule: CC(C)C[C@H](NC(=O)[C@@H](NC(=O)[C@H](C)NC(=O)[C@H](CC(C)C)NC(=O)[C@@H]1CCCN1C(=O)[C@H](C)NC(=O)[C@H](C)NC(=O)[C@H](CC(C)C)NC(=O)[C@@H](NC(=O)[C@H](CC(C)C)NC(=O)[C@@H]1CCCN1C(=O)[C@H](CC(C)C)NC(=O)[C@H](C)NC(=O)[C@H](C)NC(=O)[C@H](CC(C)C)NC(=O)[C@@H]1CCCN1C(=O)[C@H](CCCNC(=N)N)NC(=O)[C@H](CCCNC(=N)N)NC(=O)[C@H](CCCNC(=N)N)NC(=O)[C@H](CCC(N)=O)NC(=O)[C@H](CCCNC(=N)N)NC(=O)[C@H](CCCNC(=N)N)NC(=O)[C@H](CCCCN)NC(=O)[C@H](CCCCN)NC(=O)[C@H](CCCNC(=N)N)NC(=O)CNC(=O)[C@H](Cc1ccc(O)cc1)NC(=O)CCCCCNC(=O)CCCC[C@@H]1SC[C@@H]2NC(=O)N[C@@H]21)C(C)C)C(C)C)C(=O)N[C@@H](C)C(=O)O [bTAT-17] ({Biotin-Ahx}-YGRKKRRQRRRPLAALPLVLAAPLAVLA-OH)
- pIC50 (HSV-1 KOS mutant hrR3 [2]; [5]): 5.62
- pIC50 (in vitro): ~3.70
- pIC50 (HSV-1 KOS mutant hrR3 [3]): 5.18

Molecule: CC(C)C[C@H](NC(=O)CCCCCNC(=O)CCCC[C@@H]1SC[C@@H]2NC(=O)N[C@@H]21)C(=O)N[C@@H](C)C(=O)N[C@@H](C)C(=O)N[C@@H](CC(C)C)C(=O)N1CCC[C@H]1C(=O)N[C@@H](CC(C)C)C(=O)N[C@H](C(=O)N[C@@H](CC(C)C)C(=O)N[C@@H](C)C(=O)N[C@@H](C)C(=O)N1CCC[C@H]1C(=O)N[C@@H](CC(C)C)C(=O)N[C@@H](C)C(=O)N[C@H](C(=O)N[C@@H](CC(C)C)C(=O)N[C@@H](C)C(=O)N1CCC[C@H]1C(=O)NCC(=O)N[C@@H](CCCNC(=N)N)C(=O)N[C@@H](CCCCN)C(=O)N[C@@H](CCCCN)C(=O)N[C@@H](CCCNC(=N)N)C(=O)N[C@@H](CCCNC(=N)N)C(=O)N[C@@H](CCC(N)=O)C(=O)N[C@@H](CCCNC(=N)N)C(=O)N[C@@H](CCCNC(=N)N)C(=O)N[C@@H](CCCNC(=N)N)C(=O)N[C@@H](CS)C(N)=O)C(C)C)C(C)C [b17TAT-C] ({Biotin-Ahx}-LAALPLVLAAPLAVLAPGRKKRRQRRRC-NH2)
- pIC50 (HSV-1 KOS mutant hrR3 [2]; [5]): 5.27
- pIC50 (in vitro): ~3.70
- pIC50 (HSV-1 KOS mutant hrR3 [3]): 5.03

Molecule: CC[C@H](C)[C@H](NC(=O)[C@H](CCCCN)NC(=O)[C@@H](NC(=O)[C@H](CCC(N)=O)NC(=O)[C@H](CCCNC(=N)N)NC(=O)CCCCCNC(=O)CCCC[C@@H]1SC[C@@H]2NC(=O)N[C@@H]21)[C@@H](C)CC)C(=O)N[C@@H](Cc1ccccc1)C(=O)N[C@@H](Cc1ccccc1)C(=O)N1CCC[C@H]1C(=O)N[C@@H](CC(N)=O)C(=O)N[C@@H](CCCNC(=N)N)C(=O)N[C@@H](CCCNC(=N)N)C(=O)N[C@@H](CCSC)C(=O)N[C@@H](CCCCN)C(=O)N[C@@H](Cc1ccccc1)C(=O)N[C@@H](CCCCN)C(=O)N[C@@H](CCCCN)C(N)=O [bHOMFF, b - RQIKI F FPNRRMK F KK-amide] ({Biotin-Ahx}-RQIKIFFPNRRMKFKK-NH2)
- cytotoxicity to cells (MTS), overall [4]: generally not cytotoxic
- pIC50 (in vitro): < 4.00

Molecule: b - KLALKLALKALKAALKLA-amide ({code b}-KLALKLALKALKAALKLA-NH2; SMILES CC(C)C[C@H](NC(=O)[C@H](C)NC(=O)[C@H](CCCCN)NC(=O)[C@H](CC(C)C)NC(=O)[C@H](C)NC(=O)[C@H](CC(C)C)NC(=O)[C@H](CCCCN)NC(=O)[C@H](CC(C)C)NC(=O)[C@H](C)NC(=O)[C@H](CC(C)C)NC(=O)[C@H](CCCCN)NC(=O)CCCCCNC(=O)CCCC[C@@H]1SC[C@@H]2NC(=O)N[C@@H]21)C(=O)N[C@@H](CCCCN)C(=O)N[C@@H](C)C(=O)N[C@@H](C)C(=O)N[C@@H](CC(C)C)C(=O)N[C@@H](CCCCN)C(=O)N[C@@H](CC(C)C)C(=O)N[C@@H](C)C(N)=O) [bKLAd11,12]
- pIC50 (hrR3; 4° C., read-out: Virucidal Activity 4° C. IC50): 3.52
- pIC50 (hrR3; 37° C., read-out: Virucidal Activity 37° C. IC50): 4.21
- pIC50 (HSV-1 KOS mutant hrR3 [2]; read-out: Entry Blocking Activity IC50): 4.64

Molecule: CC(C)C[C@H](NC(=O)[C@H](C)NC(=O)[C@H](CC(C)C)NC(=O)[C@H](CC(C)C)NC(=O)[C@@H](NC(=O)[C@H](C)NC(=O)[C@@H]1CCCN1C(=O)[C@H](CC(C)C)NC(=O)[C@H](CC(C)C)NC(=O)[C@H](C)NC(=O)[C@@H](NC(=O)[C@H](C)NC(=O)[C@H](C)NC(=O)[C@H](CCCCN)NC(=O)[C@H](CCCCN)NC(=O)[C@H](CCCNC(=N)N)NC(=O)[C@H](CCCNC(=N)N)NC(=O)CCCCCNC(=O)CCCC[C@@H]1SC[C@@H]2NC(=O)N[C@@H]21)C(C)C)C(C)C)C(=O)N[C@@H](CC(C)C)C(=O)N[C@@H](C)C(=O)N1CCC[C@H]1C(=O)O [bEB] ({Biotin-Ahx}-RRKKAAVALLPAVLLALLAP-OH)
- pIC50 (in vitro): 4.00

Molecule: CC(C)C[C@H](NC(=O)[C@@H](NC(=O)[C@H](C)NC(=O)[C@H](CC(C)C)NC(=O)[C@@H]1CCCN1C(=O)[C@H](C)NC(=O)[C@H](C)NC(=O)[C@H](CC(C)C)NC(=O)[C@@H](NC(=O)[C@H](CC(C)C)NC(=O)[C@@H]1CCCN1C(=O)[C@H](CC(C)C)NC(=O)[C@H](C)NC(=O)[C@H](C)NC(=O)[C@H](CC(C)C)NC(=O)[C@@H]1CCCN1C(=O)[C@H](CCCNC(=N)N)NC(=O)[C@H](CCCNC(=N)N)NC(=O)[C@H](CCCNC(=N)N)NC(=O)[C@H](CCC(N)=O)NC(=O)[C@H](CCCNC(=N)N)NC(=O)[C@H](CCCNC(=N)N)NC(=O)[C@H](CCCCN)NC(=O)[C@H](CCCCN)NC(=O)[C@H](CCCNC(=N)N)NC(=O)CN)C(C)C)C(C)C)C(=O)N[C@@H](C)C(=O)O [TAT-17] (H-GRKKRRQRRRPLAALPLVLAAPLAVLA-OH)
- pIC50 (HSV-1 KOS mutant hrR3 [2]; [5]): 5.62
- pIC50 (in vitro): ~3.70
- pIC50 (HSV-1 KOS mutant hrR3 [3]): 5.08
